In ChEMBL document CHEMBL1129095, “Design and synthesis of new antagonist peptides for platelet GPIIb/IIIa receptor as anti-thrombotic agents” (Bioorg Med Chem Lett, 1996) one finds half-life and IC50 data, which are given here for 26 compounds.

Non-standard residues stand in square brackets, D forms with d. Residues, ends and D or L forms follow the SMILES beside them. *: point of attachment. Butyryl(4-indol-3-yl) = O=C(CCCc1c[nH]c2ccccc12)*; Dihydroorotyl(S) = O=C1C[C@@H](C(=O)*)NC(=O)N1; Phthalimidoacetyl = O=C1c2ccccc2C(=O)N1CC(=O)*; X4 = COc1ccc2[nH]c(C)c(CC(=O)*)c2c1; Hyp = O=C(O)[C@@H]1C[C@@H](O)CN1; X8 = COc1ccc2[nH]cc(CC(=O)*)c2c1; X7 = Cc1[nH]c2ccccc2c1CC(=O)*; pGlu = O=C1CC[C@@H](C(=O)O)N1; X2 = O=C(Cc1c[nH]c2ccccc12)*; NMePro = CN1CCC[C@H]1C(=O)*; X6 = O=C1NC(=O)C(CC(=O)*)N1; X1 = O=C1N[C@H](C(=O)*)CS1; Pip = O=C(O)[C@@H]1CCCCN1; X3 = O=C(c1cc(O)nc(O)n1)*; Thz = O=C(O)[C@@H]1CSCN1; Aze = O=C(O)[C@@H]1CCN1; X5 = O=C([C@@H]1CCCO1)*; PhAc = O=C(Cc1ccccc1)*; Bz = O=C(c1ccccc1)*

Test system in one series: not listed separately
The series is described as follows: T1/2 was evaluated in human plasma. In kind it is ADME, cell-free.
Regarding H-WSRGDW-OH, the half-life is 11 min.

The species named for another series is Homo sapiens. The series is described as follows: Inhibition of collagen-induced human platelet aggregation. In kind it is functional.
`N=C(N)NCCC[C@H](NC(=O)[C@H](CO)NC(=O)CN1C(=O)c2ccccc2C1=O)C(=O)NCC(=O)N[C@@H](CC(=O)O)C(=O)N[C@@H](Cc1c[nH]c2ccccc12)C(N)=O` (Phthalimidoacetyl-SRGDW-NH2) registered an IC50 of 21 µM.

The compound `N=C(N)NCCC[C@H](NC(=O)[C@H](CO)NC(=O)[C@@H]1CCCN1)C(=O)NCC(=O)N[C@@H](CC(=O)O)C(=O)N[C@@H](Cc1c[nH]c2ccccc12)C(=O)O` yielded a half-maximal inhibitory concentration (IC50) of 0.87 µM.

`N=C(N)NCCC[C@H](NC(=O)[C@H](CO)NC(=O)Cc1c[nH]c2ccccc12)C(=O)NCC(=O)N[C@@H](CC(=O)O)C(=O)N[C@@H](Cc1c[nH]c2ccccc12)C(=O)O` (X2-SRGDW-OH) showed an IC50 of 21 µM.

The compound `N=C(N)NCCC[C@H](NC(=O)[C@H](CO)NC(=O)c1ccccc1)C(=O)NCC(=O)N[C@@H](CC(=O)O)C(=O)N[C@@H](Cc1c[nH]c2ccccc12)C(N)=O` (Bz-SRGDW-NH2) gave an IC50 of 34 µM.

For `N=C(N)NCCC[C@H](NC(=O)[C@H](CO)NC(=O)[C@@H]1CCCO1)C(=O)NCC(=O)N[C@@H](CC(=O)O)C(=O)N[C@@H](Cc1c[nH]c2ccccc12)C(=O)O` (X5-SRGDW-OH), the IC50 came out at 21 µM.

The compound `N=C(N)NCCC[C@H](NC(=O)[C@H](CO)NC(=O)[C@@H]1CCCCN1)C(=O)NCC(=O)N[C@@H](CC(=O)O)C(=O)N[C@@H](Cc1c[nH]c2ccccc12)C(=O)O` (H-[Pip]SRGDW-OH) yielded an IC50 of 11 µM.

Turning to H-FSRGDW-OH, it took 23 µM to reach half-maximal inhibition (IC50).

`N=C(N)NCCC[C@H](NC(=O)[C@H](CO)NC(=O)[C@@H]1CSC(=O)N1)C(=O)NCC(=O)N[C@@H](CC(=O)O)C(=O)N[C@@H](Cc1c[nH]c2ccccc12)C(=O)O` (X1-SRGDW-OH) returned an IC50 of 12 µM.

The compound `N=C(N)NCCC[C@H](NC(=O)[C@H](CO)NC(=O)c1cc(O)nc(O)n1)C(=O)NCC(=O)N[C@@H](CC(=O)O)C(=O)N[C@@H](Cc1c[nH]c2ccccc12)C(=O)O` (X3-SRGDW-OH) yielded an IC50 of 4 µM.

In turn, `N=C(N)NCCC[C@H](NC(=O)[C@H](CO)NC(=O)[C@H]1CCCN1)C(=O)NCC(=O)N[C@@H](CC(=O)O)C(=O)N[C@@H](Cc1c[nH]c2ccccc12)C(=O)O` registered an IC50 of 33 µM.

Compound `Cc1[nH]c2ccccc2c1CC(=O)N[C@@H](CO)C(=O)N[C@@H](CCCN=C(N)N)C(=O)NCC(=O)N[C@@H](CC(=O)O)C(=O)N[C@@H](Cc1c[nH]c2ccccc12)C(=O)O` (X7-SRGDW-OH) returned an IC50 of 22 µM.

For `N=C(N)NCCC[C@H](NC(=O)[C@H](CO)NC(=O)Cc1ccccc1)C(=O)NCC(=O)N[C@@H](CC(=O)O)C(=O)N[C@@H](Cc1c[nH]c2ccccc12)C(N)=O` (PhAc-SRGDW-NH2), the IC50 is 59 µM.

Compound `COc1ccc2[nH]c(C)c(CC(=O)N[C@@H](CO)C(=O)N[C@@H](CCCN=C(N)N)C(=O)NCC(=O)N[C@@H](CC(=O)O)C(=O)N[C@@H](Cc3c[nH]c4ccccc34)C(=O)O)c2c1` (X4-SRGDW-OH) returned an IC50 of 25 µM.

Compound `N=C(N)NCCC[C@H](NC(=O)[C@H](CO)NC(=O)CCCc1c[nH]c2ccccc12)C(=O)NCC(=O)N[C@@H](CC(=O)O)C(=O)N[C@@H](Cc1c[nH]c2ccccc12)C(=O)O` ({Butyryl(4-indol-3-yl)}-SRGDW-OH) registered an IC50 of 21 µM. This IC50 and that of the compound before are within 1.5-fold of each other.

For the compound `N=C(N)NCCC[C@H](NC(=O)[C@H](CO)NC(=O)[C@@H]1CC(=O)NC(=O)N1)C(=O)NCC(=O)N[C@@H](CC(=O)O)C(=O)N[C@@H](Cc1c[nH]c2ccccc12)C(=O)O` ({Dihydroorotyl(S)}-SRGDW-OH), the concentration for half-maximal inhibition (IC50) is 8.7 µM. This IC50 is about 2.4-fold lower than that of the compound before.

Turning to `COc1ccc2[nH]cc(CC(=O)N[C@@H](CO)C(=O)N[C@@H](CCCN=C(N)N)C(=O)NCC(=O)N[C@@H](CC(=O)O)C(=O)N[C@@H](Cc3c[nH]c4ccccc34)C(=O)O)c2c1` (X8-SRGDW-OH), the IC50 amounted to 11 µM.

H-WSRGDW-OH gave an IC50 of 6.8 µM.

As to `N=C(N)NCCC[C@H](NC(=O)[C@H](CO)NC(=O)CC1NC(=O)NC1=O)C(=O)NCC(=O)N[C@@H](CC(=O)O)C(=O)N[C@@H](Cc1c[nH]c2ccccc12)C(=O)O` (some centres not stated) (X6-SRGDW-OH), the IC50 is 6.9 µM.

As for Ac-SRGDW-NH2, it took 74 µM to reach half-maximal inhibition (IC50).

For the compound Ac-PSRGDW-OH, the concentration for half-maximal inhibition (IC50) amounted to 50 µM.

As for `N=C(N)NCCC[C@H](NC(=O)[C@H](CO)NC(=O)[C@@H]1CSCN1)C(=O)NCC(=O)N[C@@H](CC(=O)O)C(=O)N[C@@H](Cc1c[nH]c2ccccc12)C(=O)O` (H-[Thz]SRGDW-OH), the IC50 came out at 27 µM.

`CN1CCC[C@H]1C(=O)N[C@@H](CO)C(=O)N[C@@H](CCCN=C(N)N)C(=O)NCC(=O)N[C@@H](CC(=O)O)C(=O)N[C@@H](Cc1c[nH]c2ccccc12)C(=O)O` (NMePro-SRGDW-OH) yielded an IC50 of 20 µM.

The compound `NC(=O)[C@H](Cc1ccccc1)NC(=O)[C@H](CC(=O)O)NC(=O)CNC(=O)[C@@H](N)CCCN=C(N)N` (H-RGDF-NH2) gave an IC50 of 50 µM.

In turn, `N=C(N)NCCC[C@H](NC(=O)[C@H](CO)NC(=O)[C@@H]1CCC(=O)N1)C(=O)NCC(=O)N[C@@H](CC(=O)O)C(=O)N[C@@H](Cc1c[nH]c2ccccc12)C(=O)O` ([pGlu]SRGDW-OH) returned an IC50 of 5.6 µM. Compared with the last compound, the IC50 is about 8.9-fold lower.

Turning to `N=C(N)NCCC[C@H](NC(=O)[C@H](CO)NC(=O)[C@@H]1CCN1)C(=O)NCC(=O)N[C@@H](CC(=O)O)C(=O)N[C@@H](Cc1c[nH]c2ccccc12)C(=O)O` (H-[Aze]SRGDW-OH), inhibition was half-maximal at 1.3 µM (IC50).

`N=C(N)NCCC[C@H](NC(=O)[C@H](CO)NC(=O)[C@@H]1C[C@@H](O)CN1)C(=O)NCC(=O)N[C@@H](CC(=O)O)C(=O)N[C@@H](Cc1c[nH]c2ccccc12)C(=O)O` (H-[Hyp]SRGDW-OH) displayed an IC50 of 28 µM.
